Target: T1, human hNET (Homo sapiens, UniProt P23975)
T1 construct: expressed in transfected cells; host or cells: MDCK-Net6 (MDCK cells stably transfected with hNET)
Assay: Functional norepinephrine reuptake assay, Procedure B (6,000 cells/well)
Assay type: cell-based
Conditions: MDCK-Net6 cells, 6,000 cells/well, 16 nM 3H-norepinephrine; read-out: Procedure B hNET uptake IC50
Experimental: For screening, 25 μl aliquots of compound solution at a 1 μM or 10 μM final concentration was delivered directly to cells.
For IC50 determinations, stock compounds were prepared at 10 mM from powder. The stock solution was diluted according to compound testing range. […] On the day of assay, 25 μl of compound solution at the specified concentrations were added to the plates containing cells. A DMSO stock of desipramine was prepared at 10 mM in DMSO and diluted for a final concentration of 20 μM to determine the non-specific reuptake.
MDCK-Net6 cells, stably transfected with human hNET (Pacholczyk, 1991), were maintained in growth media [high glucose DMEM (Gibco Cat. 11995), 10% FBS (dialyzed, heat-inactivated, Sigma, dialysed, heat inactivated, Lot# K0922 or equivalent) 1xPen/Strep, and 500 μg/ml G418 (Gibco Cat. 10131)]. Cells were plated at 300,000/T75 flask and cells split twice weekly.
Cells were plated at 50,000 cells/well (Procedure A) or 6,000 cells/well (Procedure B) on day 1 in BD Falcon Microtest 96-well sterile cell culture plates, Optilux White/Clear Bottom TC plate (VWR; # 62406-466 or equivalent) in growth media and maintained in a cell incubator (37° C., 5% CO2). On Day 2, cells were removed from the cell incubator and the growth media is replaced by 200 μl of assay buffer (25 mm HEPES 120 mM NaCL; 5 mM KCl; 2.5 mM CaCl2; 1.2 mM MgSO4; 2 mg/ml glucose (pH 7.4, 37° C.)) containing 0.2 mg/ml ascorbic acid and 1 μM parglyine. For screening, 25 μl of compound in 4% DMSO was added directly to each well and the plate was incubated for 5 minutes (37° C.). […] The reaction is aspirated from the plate and the cells washed with 250 μl of 50 mM Tris Buffer (4° C.). The plates were left to dry for 1 hour. The cells were lysed using 0.25 M NaOH solution then placed on a shake table and vigorously shaken for 10 minutes. After cell lysis, 100 μl of Microscint 20 (PerkinElmer; #87-051101) was added to the plates and the plates were sealed with film tape and replaced on the shake table for a minimum of 10 minutes. The plates were counted in a TopCount counter (PerkinElmer).
% inhibition=[1−((mean cpm test compound wells−mean cpm non-specific wells)/(mean cpm control wells−mean cpm non-specific wells))]×100
For IC50 determination, raw cpm values were generated in a data file from the TopCount counter. The data was organized using the Microsoft Excel and transferred into PRIZM graphing and statistical program, which calculated the estimated IC50 value. Calculation of IC50 values was made using non-linear regression analysis with a sigmoidal dose response with variable slope. The statistical program used wells containing ^3H norepinephrine only as the maximal NE reuptake determinant and wells containing ^3H norepinephrine plus 20 μM desipramine (AHR-9543) as the minimal NE reuptake determinant (non-specific determinant). Estimation of the IC50 value was completed on a log scale and the line was fit between the maximal and minimal NE reuptake values.

T1 sequence (P23975 whole entry): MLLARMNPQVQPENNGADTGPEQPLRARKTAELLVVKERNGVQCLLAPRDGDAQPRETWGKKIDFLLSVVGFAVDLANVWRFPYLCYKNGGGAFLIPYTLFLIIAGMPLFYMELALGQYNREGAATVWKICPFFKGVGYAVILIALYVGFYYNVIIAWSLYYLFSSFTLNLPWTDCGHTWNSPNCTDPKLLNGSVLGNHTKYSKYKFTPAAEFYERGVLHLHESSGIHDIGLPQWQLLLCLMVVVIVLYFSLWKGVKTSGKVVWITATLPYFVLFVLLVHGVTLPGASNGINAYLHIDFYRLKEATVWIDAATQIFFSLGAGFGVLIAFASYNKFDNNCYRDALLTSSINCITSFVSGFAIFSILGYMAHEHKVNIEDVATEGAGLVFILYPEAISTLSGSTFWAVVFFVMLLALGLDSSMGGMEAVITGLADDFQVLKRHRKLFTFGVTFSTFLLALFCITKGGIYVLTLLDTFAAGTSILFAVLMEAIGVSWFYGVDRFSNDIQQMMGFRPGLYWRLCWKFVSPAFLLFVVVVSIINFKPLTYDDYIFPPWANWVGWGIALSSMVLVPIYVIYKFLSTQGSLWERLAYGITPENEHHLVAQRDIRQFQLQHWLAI

IC50 | SMILES
206 nM | CNCCC[C@@H]1Cc2cc(F)ccc2N(c2ccccc2C#N)S1(=O)=O (single isomer, unassigned) [Example 165]
587 nM | CNCCC[C@H]1Cc2cc(F)ccc2N(c2ccccc2OC)S1(=O)=O (single isomer, unassigned) [Example 167]
341 nM | CNCCC[C@@H]1Cc2cc(F)ccc2N(c2ccccc2OC)S1(=O)=O (single isomer, unassigned) [Example 168]
343 nM | CNCCC[C@H]1Cc2cc(F)ccc2N(c2ccc(F)cc2C)S1(=O)=O (single isomer, unassigned) [Example 170]
322 nM | CNCCC[C@@H]1Cc2cc(F)ccc2N(c2ccc(F)cc2C)S1(=O)=O (single isomer, unassigned) [Example 171]
20 nM | CNCCC[C@H]1Cc2cc(Cl)ccc2N(c2ccccc2F)S1(=O)=O (single isomer, unassigned) [Example 176]
43 nM | CNCCC[C@@H]1Cc2cc(Cl)ccc2N(c2ccccc2F)S1(=O)=O (single isomer, unassigned) [Example 177]
492 nM | CNCCCC1Oc2ccccc2N(c2ccc(F)cc2)S1(=O)=O (stereo not shown) [Example 15, 3-[1-(4-fluorophenyl)-2,2-dioxido-1H-4,2,1-benzoxathiazin-3-yl]-N-methylpropan-1-amine]
361 nM | CNCCCC1Oc2ccccc2N(c2cccc(C)c2)S1(=O)=O (stereo not shown) [Example 16, N-methyl-3-[1-(3-methylphenyl)-2,2-dioxido-1H-4,2,1-benzoxathiazin-3-yl]propan-1-amine]
26.4 nM | CNCCCC1Oc2ccccc2N(c2ccc(C)cc2)S1(=O)=O (stereo not shown) [Example 17, N-methyl-3-[1-(4-methylphenyl)-2,2-dioxido-1H-4,2,1-benzoxathiazin-3-yl]propan-1-amine]
353 nM | CNCCCC1Oc2ccccc2N(c2cccc(OC)c2)S1(=O)=O (stereo not shown) [Example 18, 3-[1-(3-methoxyphenyl)-2,2-dioxido-1H-4,2,1-benzoxathiazin-3-yl]-N-methylpropan-1-amine]
1200 nM | CNCCCC1Oc2ccccc2N(c2ccc(OC)cc2)S1(=O)=O (stereo not shown) [Example 19, 3-[1-(4-methoxyphenyl)-2,2-dioxido-1H-4,2,1-benzoxathiazin-3-yl]-N-methylpropan-1-amine]
106 nM | CNCCCC1Oc2ccccc2N(c2cccc(F)c2)S1(=O)=O (stereo not shown) [Example 20, 3-[1-(3-fluorophenyl)-2,2-dioxido-1H-4,2,1-benzoxathiazin-3-yl]-N-methylpropan-1-amine]
4570 nM | CNCCCC1Oc2ccccc2N(c2ccc3ccccc3c2)S1(=O)=O (stereo not shown) [Example 21, N-methyl-3-[1-(2-naphthyl)-2,2-dioxido-1H-4,2,1-benzoxathiazin-3-yl]propan-1-amine]
4150 nM | CNCCCC1Oc2ccccc2N(c2cc(C)cc(C)c2)S1(=O)=O (stereo not shown) [Example 22, 3-[1-(3,5-dimethylphenyl)-2,2-dioxido-1H-4,2,1-benzoxathiazin-3-yl]-N-methylpropan-1-amine]
244 nM | CCNCCC1Oc2ccccc2N(c2ccccc2)S1(=O)=O (stereo not shown) [Example 23, 2-(2,2-dioxido-1-phenyl-1H-4,2,1-benzoxathiazin-3-yl)-N-ethylethanamine]
583 nM | NCCC1Oc2ccccc2N(c2ccccc2)S1(=O)=O (stereo not shown) [Example 24, 2-(2,2-dioxido-1-phenyl-1H-4,2,1-benzoxathiazin-3-yl)ethanamine]
162 nM | CNCCC1Oc2ccccc2N(c2ccccc2)S1(=O)=O (stereo not shown) [Example 25, 2-(2,2-dioxido-1-phenyl-1H-4,2,1-benzoxathiazin-3-yl)-N-methylethanamine]
97.1 nM | CN(C)CCC1Oc2ccccc2N(c2ccccc2)S1(=O)=O (stereo not shown) [Example 26, 2-(2,2-dioxido-1-phenyl-1H-4,2,1-benzoxathiazin-3-yl)-N,N-dimethylethanamine]
4410 nM | CCCNCCC1Oc2ccccc2N(c2ccccc2)S1(=O)=O (stereo not shown) [Example 27, N-[2-(2,2-dioxido-1-phenyl-1H-4,2,1-benzoxathiazin-3-yl)ethyl]propan-1-amine]
1760 nM | CC(C)CNCCC1Oc2ccccc2N(c2ccccc2)S1(=O)=O (stereo not shown) [Example 28, N-[2-(2,2-dioxido-1-phenyl-1H-4,2,1-benzoxathiazin-3-yl)ethyl]-2-methylpropan-1-amine]
1640 nM | O=S1(=O)C(CCN2CCCC2)Oc2ccccc2N1c1ccccc1 (stereo not shown) [Example 29, 1-phenyl-3-(2-pyrrolidin-1-ylethyl)-1H-4,2,1-benzoxathiazine 2,2-dioxide]
1660 nM | CCCCNCCC1Oc2ccccc2N(c2ccccc2)S1(=O)=O (stereo not shown) [Example 31, N-[2-(2,2-dioxido-1-phenyl-1H-4,2,1-benzoxathiazin-3-yl)ethyl]butan-1-amine]
597 nM | NCCCC1Oc2ccccc2N(c2ccccc2)S1(=O)=O (stereo not shown) [Example 33, 3-(2,2-dioxido-1-phenyl-1H-4,2,1-benzoxathiazin-3-yl)propan-1-amine]
5100 nM | CCCNCCCC1Oc2ccccc2N(c2ccccc2)S1(=O)=O (stereo not shown) [Example 35, 3-(2,2-dioxido-1-phenyl-1H-4,2,1-benzoxathiazin-3-yl)-N-propylpropan-1-amine]
1080 nM | O=S1(=O)C(CCCNC2CC2)Oc2ccccc2N1c1ccccc1 (stereo not shown) [Example 40, N-[3-(2,2-dioxido-1-phenyl-1H-4,2,1-benzoxathiazin-3-yl)propyl]cyclopropanamine]
875 nM | CNCCCC1Oc2ccc(F)cc2N(c2ccccc2)S1(=O)=O (stereo not shown) [Example 44, 3-(7-fluoro-2,2-dioxido-1-phenyl-1H-4,2,1-benzoxathiazin-3-yl)-N-methylpropan-1-amine]

SMILES | IC50
CCNCCCC1Oc2ccccc2N(c2ccccc2)S1(=O)=O (stereo not shown) [Example 34, 3-(2,2-dioxido-1-phenyl-1H-4,2,1-benzoxathiazin-3-yl)-N-ethylpropan-1-amine] | 2580 nM

Same assay, conditions: MDCK-Net6 cells, 6,000 cells/well; Conc 6000 nM (6 μM); read-out: Procedure B hNET uptake (% inhibition)

inhibition at 6 µM | SMILES
35% | CN1CCN(CCC2Oc3ccccc3N(c3ccccc3)S2(=O)=O)CC1 (stereo not shown) [Example 30, 3-[2-(4-methylpiperazin-1-yl)ethyl]-1-phenyl-1H-4,2,1-benzoxathiazine 2,2-dioxide]
54% | O=S1(=O)C(CCNC2CCC2)Oc2ccccc2N1c1ccccc1 (stereo not shown) [Example 32, N-[2-(2,2-dioxido-1-phenyl-1H-4,2,1-benzoxathiazin-3-yl)ethyl]cyclobutanamine]
57% | CCCCNCCCC1Oc2ccccc2N(c2ccccc2)S1(=O)=O (stereo not shown) [Example 36, N-[3-(2,2-dioxido-1-phenyl-1H-4,2,1-benzoxathiazin-3-yl)propyl]butan-1-amine]
15% | CC(C)NCCCC1Oc2ccccc2N(c2ccccc2)S1(=O)=O (stereo not shown) [Example 37, 3-(2,2-dioxido-1-phenyl-1H-4,2,1-benzoxathiazin-3-yl)-N-isopropylpropan-1-amine]
63% | CC(C)CNCCCC1Oc2ccccc2N(c2ccccc2)S1(=O)=O (stereo not shown) [Example 38, N-[3-(2,2-dioxido-1-phenyl-1H-4,2,1-benzoxathiazin-3-yl)propyl]-2-methylpropan-1-amine]
32% | O=S1(=O)C(CCCNCCCO)Oc2ccccc2N1c1ccccc1 (stereo not shown) [Example 39, 3-{[3-(2,2-dioxido-1-phenyl-1H-4,2,1-benzoxathiazin-3-yl)propyl]amino}propan-1-ol]
50% | O=S1(=O)C(CCCNC2CCC2)Oc2ccccc2N1c1ccccc1 (stereo not shown) [Example 41, N-[3-(2,2-dioxido-1-phenyl-1H-4,2,1-benzoxathiazin-3-yl)propyl]cyclobutanamine]
48% | O=S1(=O)C(CCCNC2CCCC2)Oc2ccccc2N1c1ccccc1 (stereo not shown) [Example 42, N-[3-(2,2-dioxido-1-phenyl-1H-4,2,1-benzoxathiazin-3-yl)propyl]cyclopentanamine]
67% | O=S1(=O)C(CCCNC2CCCCC2)Oc2ccccc2N1c1ccccc1 (stereo not shown) [Example 43, N-[3-(2,2-dioxido-1-phenyl-1H-4,2,1-benzoxathiazin-3-yl)propyl]cyclohexanamine]

— patent US20080171737A1 (Wyeth, priority 2006, published 2008)
